Measured values from patent US20260042764A1, “COMPOSITIONS AND METHODS FOR INHIBITION OF KRAS” (TheRas, Inc., priority 2022, published 2026).

What was measured:
[1] = biological target: T1, Avi-KRAS G12D (1-169) GppNHp/RAF1 RBD-3xFLAG (52-151) (Homo sapiens, UniProt P01116, G12D); test: Raf1-KRAS G12D-GppNHP disruption HTRF assay (Biological Example 1); assay type: binding; conditions: KRAS G12D, GppNHp-loaded; Table 11
T1 construct: Avi-KRAS G12D (1-169)
Summary of the method: (§1)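 Protein mix, 1 h RT, 700 rpm; reagent mix, 1 h RT, 700 rpm; HTRF read. Buffer Tris pH 7.5/NaCl/MgCl2/BSA/Tween, 10% DMSO. Output % activity, DMSO = 100%.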

[2] = biological target: T2, Avi-KRAS G12R (1-169) GppNHp/RAF1 RBD-3xFLAG (52-151) (Homo sapiens, UniProt P01116, G12R); test: Raf1-KRAS G12R-GppNHP disruption HTRF assay (Biological Example 1); assay type: binding; conditions: KRAS G12R, GppNHp-loaded; Table 11
T2 construct: Avi-KRAS G12R (1-169)
Summary of the method: as §1

[3] = biological target: T3, Avi-KRAS G12V (1-169) GppNHp/RAF1 RBD-3xFLAG (52-151) (Homo sapiens, UniProt P01116, G12V); test: Raf1-KRAS G12V-GppNHP disruption HTRF assay (Biological Example 1); assay type: binding; conditions: KRAS G12V, GppNHp-loaded; Table 11
T3 construct: Avi-KRAS G12V (1-169)
Summary of the method: as §1

[4] = biological target: T4, Avi-KRAS WT (1-169) GppNHp/RAF1 RBD-3xFLAG (52-151) (Homo sapiens, UniProt P01116); test: Raf1-KRAS WT-GppNHP disruption HTRF assay (Biological Example 1); assay type: binding; conditions: KRAS WT, GppNHp-loaded; Table 11
T4 construct: Avi-KRAS WT (1-169)
Summary of the method: as §1

GP2d cells (KRAS G12D) = test: Cell-based pERK HTRF assay in GP2d cell (Biological Example 2); conditions: GP2d, GP2d (KRAS G12D) cells, pERK HTRF
Summary of the method: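 Cells grown in DMEM with 10% FBS were exposed to compound for 60 min at 0.25% DMSO, using a 9-point half-log series starting at 1 μM or 100 nM. Lysates were then mixed with d2 and Eu cryptate antibodies for 4–24 h at room temperature, and pERK was read by HTRF.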

SW1900 cells (KRAS G12D) = test: 3D Cell viability assay in SW1900 cells (Biological Example 6); assay type: cell-based; conditions: Homo sapiens; SW1990 (text: SW1900, KRAS G12D) spheroids, 72 hours
Procedure: (§2) Biological Example 6: 3D Cell viability assay in AsPC-1, SW1900, HPAC, Capan-2, RKN, H358, HCT116, KP-2, H1573, A549, MKN1, and HT1080 cells
(§3) The inhibition of cellular viability as a result of test compound treatment in a spheroid assay was measured using the CellTiter-Glow 3D Cell Viability Assay (Promega).
(§4) On Day 1, 1000 cells per well were seeded in 150 μL of complete growth media supplemented with 10% fetal bovine serum (FBS) and incubated at 37° C., in the presence of 5% CO2 in 96-well ultra-low attachment microplates (Corning) for 48 hours undisturbed to allow spheroids to form.
(§5) Following spheroid formation, cells were treated with compounds diluted in DMSO at 0.25% final DMSO concentration. Compounds were dosed in a 9-point concentration curve with three-fold dilution between concentrations. Cells were incubated in the presence of compound for 72 hours at 37° C., in the presence of 5% CO2.
(§6) Following this incubation period, the kit-provided CTG reagent was allowed to equilibrate for 30 minutes at room temperature, 150 μL of equilibrated CTG reagent was added to each well, and the plate was sealed before shaking at 250 rpm for 10 minutes at room temperature to lyse the cells, 150 μL of lysate per well was transferred to a 96-well plate and luminescence was read on a CLARIOstar plate reader.
(§7) Data was imported into the Prism software package (Graphpad) and EC50 values were calculated using the log (inhibitor) vs, response—variable slope (Four parameters) model.

HPAC cells (KRAS G12D) = test: 3D Cell viability assay in HPAC cells (Biological Example 6); assay type: cell-based; conditions: Homo sapiens, HPAC, 72 h, HPAC (KRAS G12D) spheroids
Procedure: as §2, §3, §4, §5, §6, §7

H358 cells (KRAS G12C) = test: 3D Cell viability assay in H358 cells (Biological Example 6); assay type: cell-based; conditions: Homo sapiens, NCI-H358; H358 (KRAS G12C) spheroids, 72 hours
Procedure: as §2, §3, §4, §5, §6, §7

HCT116 cells (KRAS G13D) = test: 3D Cell viability assay in HCT116 cells (Biological Example 6); assay type: cell-based; conditions: Homo sapiens, HCT-116; HCT116 (KRAS G13D) spheroids, 72 hours
Procedure: as §2, §3, §4, §5, §6, §7

H1573 cells (KRAS G12A) = test: 3D Cell viability assay in H1573 cells (Biological Example 6); assay type: cell-based; conditions: Homo sapiens, NCI-H1573; H1573 (KRAS G12A) spheroids, 72 hours
Procedure: as §2, §3, §4, §5, §6, §7

A549 cells (KRAS G12S) = test: 3D Cell viability assay in A549 cells (Biological Example 6); assay type: cell-based; conditions: Homo sapiens; A549 (KRAS G12S) spheroids, 72 hours
Procedure: as §2, §3, §4, §5, §6, §7

HT1080 cells (NRAS) = test: 3D Cell viability assay in HT1080 cells (Biological Example 6); assay type: cell-based; conditions: Homo sapiens, HT-1080; HT1080 (NRAS) spheroids, 72 hours
Procedure: as §2, §3, §4, §5, §6, §7

T2 sequence (P01116 1-169 isoform P01116-2 G12R): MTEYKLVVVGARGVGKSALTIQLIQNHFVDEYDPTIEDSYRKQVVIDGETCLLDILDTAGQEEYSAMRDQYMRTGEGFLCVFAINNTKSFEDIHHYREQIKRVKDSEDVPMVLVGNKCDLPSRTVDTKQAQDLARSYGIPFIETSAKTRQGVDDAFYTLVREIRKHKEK
T3 sequence (P01116 1-169 isoform P01116-2 G12V): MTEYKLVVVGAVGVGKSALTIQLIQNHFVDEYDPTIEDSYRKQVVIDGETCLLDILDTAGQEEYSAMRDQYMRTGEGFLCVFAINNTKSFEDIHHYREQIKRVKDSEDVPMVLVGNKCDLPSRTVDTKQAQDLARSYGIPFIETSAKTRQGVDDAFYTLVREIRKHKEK
T1 sequence (P01116 1-169 isoform P01116-2 G12D): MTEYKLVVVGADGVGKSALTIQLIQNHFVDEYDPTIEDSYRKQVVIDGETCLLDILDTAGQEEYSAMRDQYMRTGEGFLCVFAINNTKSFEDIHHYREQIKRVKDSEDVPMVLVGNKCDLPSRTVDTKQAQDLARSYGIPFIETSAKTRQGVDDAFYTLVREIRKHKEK
T4 sequence (P01116 1-169 isoform P01116-2): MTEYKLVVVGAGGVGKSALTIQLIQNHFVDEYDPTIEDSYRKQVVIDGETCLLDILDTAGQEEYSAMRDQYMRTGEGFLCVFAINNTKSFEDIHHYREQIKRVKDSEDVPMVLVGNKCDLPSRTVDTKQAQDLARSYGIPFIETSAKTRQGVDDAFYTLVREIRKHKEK

IC50 [1]: < 100 nM | IC50 [2]: 100 to 1000 nM | IC50 [3]: 100 to 1000 nM | IC50 [4]: 100 to 1000 nM | IC50 (GP2d cells (KRAS G12D)): < 100 nM | IC50 (SW1900 cells (KRAS G12D)): 100 to 1000 nM | IC50 (H358 cells (KRAS G12C)): ≤ 100 nM | IC50 (HCT116 cells (KRAS G13D)): 100 to 1000 nM | IC50 (H1573 cells (KRAS G12A)): 100 to 1000 nM | IC50 (A549 cells (KRAS G12S)): ≤ 100 nM | IC50 (HT1080 cells (NRAS)): > 1000 nM
SMILES: CN(C)c1nc(OC[C@@]23CCCN2C[C@H](F)C3)nc2c(F)c(-c3ccc(F)c4sc(N)c(C#N)c34)c(C(F)(F)F)cc12 [Compound 153]
IC50 (HPAC cells (KRAS G12D)): 100 to 1000 nM
